According to US10556865B2, “Synergistic herbicidal composition containing certain pyridine or pyrimidine carboxylic acids and certain cereal and rice herbicides” (Dow AgroSciences, LLC, priority 2007, dated 2020):
Where “and” joins values, the source holds several entries; their conditions need not be identical. Identical values can stand only once.

How the values were obtained:
Type in all cases: in vivo
[1] = system: Polygonum persicaria L. (POLPE); assay: Postemergence herbicidal mixtures for weed control in direct seeded rice (greenhouse, visual % injury)
[2] = system: Scirpus maritimus L. (SCPMA); assay: as above
[3] = system: Ischaemum rugosum SALISB. (ISCRU); assay: as above
[4] = system: Ipomoea hederacea (L.) JACQ. (IPOHE); assay: Postemergence herbicidal mixtures for weed control in direct seeded rice (greenhouse, visual % injury after 3 weeks)
[5] = system: Polygonum pensylvanicum L. (POLPY); assay: Postemergence herbicidal mixtures for weed control in direct seeded rice (greenhouse, visual % injury)
[6] = system: Leptochloa chinensis (L.) NEES (LEFCH); assay: as above
Cyperus iria L. (CYPIR) = assay: as above
[7] = system: Cyperus esculentus L. (CYPES); assay: as above
[8] = system: Echinochloa species (ECHSS); assay: Herbicidal mixtures for weed control in transplanted paddy rice (in-water application, visual % injury after 3 weeks)
Procedure: (§1) Weed seeds or nutlets of the desired test plant species were planted in puddled soil (mud) prepared by mixing a non-sterilized mineral soil (28 percent silt, 18 percent clay, and 54 percent sand, with a pH of about 7.3 to 7.8 and an organic matter content of about 1.0 percent) and water at a ratio of 100 kilograms (kg) of soil to 19 L of water. The prepared mud was dispensed in 250 mL aliquots into 480 mL non-perforated plastic pots with a surface area of 91.6 square centimeters leaving a headspace of 3 centimeters in each pot. Rice seeds were planted in Sun Gro MetroMix® 306 planting mixture, which typically has a pH of 6.0 to 6.8 and an organic matter content of about 30 percent, in plastic plug trays. Seedlings at the second or third leaf stage of growth were transplanted into 650 mL of mud contained in 960 mL non-perforated plastic pots with a surface area of 91.6 cm^2 4 days prior to herbicide application. The paddy was created by filling the 3 centimeter headspace of the pots with water. When required to ensure good germination and healthy plants, a fungicide treatment and/or other chemical or physical treatment was applied. The plants were grown for 4-14 days in a greenhouse with an approximate 14 hr photoperiod which was maintained at about 29° C. during the day and 26° C. during the night. Nutrients were added as Osmocote (17:6:10, N:P:K+minor nutrients) at 2 g per cup. Water was added on a regular basis to maintain the paddy flood, and supplemental lighting was provided with overhead metal halide 1000-Watt lamps as necessary. The plants were employed for testing when they reached the second or third true leaf stage.
(§2) Treatments consisted of esters or salts of compound A, compound C, or compound D and various herbicidal components alone and in combination. For technical grade compounds, a weighed amount, determined by the highest rate to be tested, was placed in an individual 120 mL glass vial and was dissolved in 20 mL of acetone to obtain concentrated stock solutions. […] The concentrated stock solutions obtained were diluted with 20 mL of an aqueous mixture containing 2.5% Agri-dex crop oil concentrate (v/v). For formulated compounds, a measured amount, determined by the highest rate to be tested, was placed in an individual 120 mL glass vial and was dissolved in 20 mL of 2.5% (v/v) Agri-dex crop oil concentrate to obtain concentrated stock solutions. The concentrated stock solutions obtained were diluted with 20 mL of acetone. Applications were made by injecting an appropriate amount of the stock solution into the aqueous layer of the paddy. Control plants were treated in the same manner with the solvent blank. All treated plant material received the same concentration of acetone and crop oil concentrate.
(§3) Forms of compounds A, C, and D were applied on an acid equivalent basis. Other herbicidal components were applied on an active ingredient basis and included acetolactate synthase (ALS)-inhibiting herbicides penoxsulam (triazolopyrimidine chemical class) applied as Grasp SC, […] (sulfonylurea chemical class) applied as Sirius G, and bensulfuron-methyl (sulfonylurea chemical class) applied as Londax; acetyl CoA carboxylase (ACCase) inhibiting herbicides cyhalofop-butyl applied as Clincher G and fenoxaprop-p-ethyl applied as Ricestar HT; auxinic herbicide quinclorac applied as Facet 75 DF; phytoene desaturase inhibiting herbicide norflurazon; and p-hydroxyphenylpyruvate dioxygenase (HPPD) inhibiting herbicide sulcotrione applied as Mikado.
(§4) The treated plants and control plants were placed in a greenhouse as described above and water was added as needed to maintain a paddy flood. After 3 weeks the condition of the test plants as compared with that of the untreated plants was determined visually and scored on a scale of 0 to 100 percent where 0 corresponds to no injury and 100 corresponds to complete kill.

[9] = system: Leptochloa chinensis (L.) NEES (LEFCH); assay: Herbicidal mixtures for weed control in transplanted paddy rice (in-water application, visual % injury)
Procedure: as §1, §2, §3, §4

[10] = system: Eleocharis kuroguwai OHWI (ELOKU); assay: as above
Procedure: as §1, §2, §3, §4

Cyperus species (CYPSS) = assay: as above
Procedure: as §1, §2, §3, §4

[11] = system: Fimbristylis miliacea (L.) VAHL (FIMMI); assay: as above
Procedure: as §1, with “When required to ensure good germination and healthy plants, a fungicide treatment and/or other chemical or physical treatment was applied.” left out
as §2, §3, §4

CCCCOC(=O)c1nc(-c2ccc(Cl)c(OC)c2F)cc(N)c1Cl [Compound A n-Butyl]
% Injury POLPE Ob ([1]; alone 4.38 g/ha): 40%
% Injury POLPE Ob ([1]; alone 8.75 g/ha): 60%
% Injury at 11 DAA SCPMA Ob ([2]; alone 35 g/ha): 30%
% Injury at 11 DAA SCPMA Ob ([2]; alone 70 g/ha): 100%
% Injury at 21 DAA SCPMA Ob ([2]; alone 35 g/ha): 50%
% Injury at 21 DAA SCPMA Ob ([2]; alone 70 g/ha): 100%
% Injury ISCRU Ob ([3]; alone 35 g/ha): 20%
% Injury ISCRU Ob ([3]; alone 70 g/ha): 50%
% Injury IPOHE Ob ([4]; alone 8.75 g/ha): 35%
% Injury IPOHE Ob ([4]; alone 17.5 g/ha): 30%
% Injury POLPY Ob ([5]; alone 8.75 g/ha): 40%
% Injury POLPY Ob ([5]; alone 17.5 g/ha): 90%
% Injury LEFCH Ob ([6]; alone 8.75 g/ha): 10%
% Injury LEFCH Ob ([6]; alone 17.5 g/ha): 30%
% Injury LEFCH Ob ([6]; alone 35 g/ha): 60%
% Injury at 11 DAA CYPIR Ob (Cyperus iria L. (CYPIR); alone 35 g/ha): 60%
% Injury at 11 DAA CYPIR Ob (Cyperus iria L. (CYPIR); alone 70 g/ha): 90%
% Injury at 21 DAA CYPIR Ob (Cyperus iria L. (CYPIR); alone 35 g/ha): 60%
% Injury at 21 DAA CYPIR Ob (Cyperus iria L. (CYPIR); alone 70 g/ha): 100%
% Injury 11 DAA CYPES Ob ([7]; alone 35 g/ha): 50%
% Injury 11 DAA CYPES Ob ([7]; alone 70 g/ha): 75%
% Injury 21 DAA CYPES Ob ([7]; alone 35 g/ha): 90%
% Injury 21 DAA CYPES Ob ([7]; alone 70 g/ha): 100%
% Injury CYPES Ob ([7]; alone 8.75 g/ha): 50%
% Injury CYPES Ob ([7]; alone 17.5 g/ha): 85% and 90%

CCC(=O)Nc1ccc(Cl)c(Cl)c1 [Propanil]
% Injury POLPE Ob ([1]; alone 560 g/ha): 10%
% Injury POLPE Ob ([1]; alone 1120 g/ha): 40%
% Injury at 11 DAA SCPMA Ob ([2]; alone 560 g/ha): 30%
% Injury at 11 DAA SCPMA Ob ([2]; alone 1120 g/ha): 30%
% Injury at 21 DAA SCPMA Ob ([2]; alone 560 g/ha): 0%
% Injury at 21 DAA SCPMA Ob ([2]; alone 1120 g/ha): 0%
% Injury IPOHE Ob ([4]; alone 560 g/ha): 10%
% Injury IPOHE Ob ([4]; alone 1120 g/ha): 10%
% Injury at 11 DAA CYPIR Ob (Cyperus iria L. (CYPIR); alone 560 g/ha): 10%
% Injury at 11 DAA CYPIR Ob (Cyperus iria L. (CYPIR); alone 1120 g/ha): 10%
% Injury at 21 DAA CYPIR Ob (Cyperus iria L. (CYPIR); alone 560 g/ha): 0%
% Injury at 21 DAA CYPIR Ob (Cyperus iria L. (CYPIR); alone 1120 g/ha): 0%

CCOC(=O)C(Cl)Cc1cc(-n2nc(C)n(C(F)F)c2=O)c(F)cc1Cl (stereo not drawn) [Carfentrazone-ethyl]
% Injury POLPE Ob ([1]; alone 14 g/ha): 0%
% Injury CYPIR Ob (Cyperus iria L. (CYPIR); alone 14 g/ha): 0%
% Injury CYPIR Ob (Cyperus iria L. (CYPIR); alone 28 g/ha): 0%
% Injury 11 DAA CYPES Ob ([7]; alone 14 g/ha): 10%
% Injury 11 DAA CYPES Ob ([7]; alone 28 g/ha): 10%
% Injury 21 DAA CYPES Ob ([7]; alone 14 g/ha): 0%
% Injury 21 DAA CYPES Ob ([7]; alone 28 g/ha): 0%
% Injury CYPES Ob ([7]; alone 56 g/ha): 10%
% Injury CYPES Ob ([7]; alone 112 g/ha): 0%

COC(=O)c1nc(-c2ccc(Cl)c(OC)c2Cl)cc(N)c1Cl [Compound C Methyl]
% Injury POLPE Ob ([1]; alone 35 g/ha): 85%
% Injury POLPE Ob ([1]; alone 70 g/ha): 100%
% Injury IPOHE Ob ([4]; alone 4.38 g/ha): 40%
% Injury IPOHE Ob ([4]; alone 17.5 g/ha): 50% and 40%
% Injury IPOHE Ob ([4]; alone 70 g/ha): 85%
% Injury POLPY Ob ([5]; alone 8.75 g/ha): 10%
% Injury POLPY Ob ([5]; alone 17.5 g/ha): 15%
% Injury Ob ([8]; ECHCG, 4.38 g/ha alone): 0%
% Injury Ob ([8]; ECHCG, 8.75 g/ha alone): 0%
% Injury Ob ([8]; ECHCG, 17.5 g/ha alone): 0%
% Injury Ob ([8]; ECHCG, 35 g/ha alone): 10%
% Injury Ob ([9]; 17.5 g/ha alone): 0%
% Injury Ob ([9]; 35 g/ha alone): 0%
% Injury Ob ([9]; 70 g/ha alone): 0%
% Injury LEFCH Ob ([6]; alone 4.38 g/ha): 0%
% Injury CYPIR Ob (Cyperus iria L. (CYPIR); alone 8.75 g/ha): 25%
% Injury CYPIR Ob (Cyperus iria L. (CYPIR); alone 35 g/ha): 40%
% Injury CYPES Ob ([7]; alone 17.5 g/ha): 65% and 100%

COc1cnc(OC)n2nc(NS(=O)(=O)c3c(OCC(F)F)cccc3C(F)(F)F)nc12 [Penoxsulam]
% Injury IPOHE Ob ([4]; alone 4.38 g/ha): 70%
% Injury IPOHE Ob ([4]; alone 8.75 g/ha): 60%
% Injury Ob ([8]; ECHCG, 4.38 g/ha alone): 70%
% Injury Ob ([10]; 8.75 g/ha alone): 0%
% Injury Obs ([10]; 8.75 g/ha alone): 0%
% Injury Ob ([9]; 8.75 g/ha alone): 0%
% Injury Ob ([9]; 17.5 g/ha alone): 15%
% Injury Ob ([9]; 35 g/ha alone): 20%
% Injury Ob (Cyperus species (CYPSS); CYPES, 8.75 g/ha alone): 40%
% Injury Ob (Cyperus species (CYPSS); CYPIR, 8.75 g/ha alone): 70%
% Injury LEFCH Ob ([6]; alone 17.5 g/ha): 0%
% Injury LEFCH Ob ([6]; alone 35 g/ha): 0%
% Injury CYPES Ob ([7]; alone 17.5 g/ha): 10%

COC(=O)c1ccccc1CS(=O)(=O)NC(=O)Nc1nc(OC)cc(OC)n1 [Bensulfuron-methyl]
% Injury Ob ([11]; 35 g/ha alone): 10%
% Injury Ob ([11]; 70 g/ha alone): 50%
% Injury Ob ([8]; ECHCG, 70 g/ha alone): 45% and 70%
% Injury Ob ([8]; ECHCO, 35 g/ha alone): 20%
% Injury Ob ([8]; ECHCO, 70 g/ha alone): 30%
% Injury Ob ([10]; 35 g/ha alone): 20%
% Injury Ob ([10]; 70 g/ha alone): 70%
% Injury Ob ([9]; 35 g/ha alone): 15%
% Injury Ob ([9]; 70 g/ha alone): 30%
% Injury Ob (Cyperus species (CYPSS); CYPES, 4.38 g/ha alone): 40%
% Injury Ob (Cyperus species (CYPSS); CYPES, 8.75 g/ha alone): 50%
% Injury LEFCH Ob ([6]; alone 4.38 g/ha): 20%
% Injury LEFCH Ob ([6]; alone 8.75 g/ha): 0%
